Data reported in ChEMBL document CHEMBL5154808, “Novel β-Hairpin Antimicrobial Peptides Containing the β-Turn Sequence of -RRRF- Having High Cell Selectivity and Low Incidence of Drug Resistance” (J Med Chem, 2022).
Activity calls are given as the source filed them. No cut-off for these calls is given here.

How the values were obtained:
Bacillus subtilis = test: Antimicrobial activity against Bacillus subtilis ATCC 23857 assessed as reduction of bacterial growth incubated for 18 hrs by CLSI protocol based broth microdilution method; assay type: functional
Staphylococcus aureus [1] = test: Antimicrobial activity against Staphylococcus aureus ATCC 25923 assessed as fold change in MIC incubated for 18 hrs in presence of 4.5 mM KCl by CLSI protocol based broth microdilution method relative to control; assay type: functional
Erythrocyte = test: Hemolytic activity in mouse red blood cells assessed as release of hemoglobin incubated for 1 hr by microplate reader method; assay type: toxicity, cell-based
Escherichia coli [2] = test: Synergistic antibacterial activity against Escherichia coli ATCC 25922 assessed as fractional inhibitory concentration index incubated for 18 hrs in presence of rifampicin by checker board assay; assay type: functional
Escherichia coli [3] = test: Antimicrobial activity against Escherichia coli ATCC 25922 assessed as fold change in MIC incubated for 18 hrs in presence of 1 mM MgCl2 by CLSI protocol based broth microdilution method relative to control; assay type: functional
Staphylococcus aureus [4] = test: Antimicrobial activity against Staphylococcus aureus ATCC 25923 assessed as reduction of bacterial growth incubated for 18 hrs by CLSI protocol based broth microdilution method; assay type: functional
Escherichia coli [5] = test: Antimicrobial activity against Escherichia coli ATCC 25922 assessed as fold change in MIC incubated for 18 hrs in presence of 4.5 mM KCl by CLSI protocol based broth microdilution method relative to control; assay type: functional
Escherichia coli [6] = test: Antimicrobial activity against Escherichia coli ATCC 25922 assessed as fold change in MIC incubated for 18 hrs in presence of 10% serum by CLSI protocol based broth microdilution method relative to control; assay type: functional
Staphylococcus aureus [7] = test: Bactericidal activity against Staphylococcus aureus ATCC 25923 assessed as time required to kill bacteria at 2 times MIC by time-killing assay; assay type: functional
Staphylococcus aureus [8] = test: Antimicrobial activity against Staphylococcus aureus ATCC 25923 assessed as assessed as fold change in MIC incubated for 18 hrs in presence of 4 uM FeCl3 by CLSI protocol based broth microdilution method relative to control; assay type: functional
Staphylococcus aureus [9] = test: Antimicrobial activity against kanamycin-resistant Staphylococcus aureus ATCC 25923; assay type: functional
Escherichia coli [10] = test: Antimicrobial activity against Escherichia coli ATCC 25922 assessed as reduction of bacterial growth incubated for 18 hrs by CLSI protocol based broth microdilution method; assay type: functional
Cell membrane [11] = test: Induction of outer membrane permeabilization in Escherichia coli ATCC 25922 by NPN fluorescent dye based assay; assay type: subcellular; conditions: DDE = dose-dependent effect
Staphylococcus aureus [12] = test: Antimicrobial activity against rifampicin-resistant Staphylococcus aureus ATCC 25923; assay type: functional
[13] = Cytotoxicity against human HK-2 cells assessed as reduction in cell viability incubated for 1 hr by resazurin based microplate reader method; assay type: toxicity
Escherichia coli [14] = test: Antimicrobial activity against Escherichia coli ATCC 25922 assessed as fold change in MIC incubated for 18 hrs in presence of 4 uM FeCl3 by CLSI protocol based broth microdilution method relative to control; assay type: functional
Escherichia coli [15] = test: Antimicrobial activity against Escherichia coli ATCC 25922 assessed as reduction of bacterial growth at 2 times MIC incubated for 18 hrs in presence of chymotrypsin by CLSI protocol based broth microdilution method; assay type: functional, organism-based
Staphylococcus aureus [16] = test: Antibacterial activity against Staphylococcus aureus ATCC 25923 infected BALB/c mouse assessed as reduction in hepatic inflammatory cell infiltration at 5 to 10 mg/kg, ip measured after 24 hrs by hematoxylin and eosin staining based assay; assay type: functional, organism-based; conditions: dose 5-10 mg/kg
Staphylococcus aureus [17] = test: Antimicrobial activity against Staphylococcus aureus ATCC 25923 assessed as fold change in MIC incubated for 18 hrs in presence of 1 mM MgCl2 by CLSI protocol based broth microdilution method relative to control; assay type: functional
Klebsiella pneumoniae = test: Antimicrobial activity against Klebsiella pneumoniae ATCC 700603 assessed as reduction of bacterial growth incubated for 18 hrs by CLSI protocol based broth microdilution method; assay type: functional
Escherichia coli [18] = test: Antimicrobial activity against kanamycin-resistant Escherichia coli ATCC 25922; assay type: functional
Escherichia coli [19] = test: Antimicrobial activity against Escherichia coli ATCC 25922 assessed as adherence to cell membrane measured after 30 mins by SEM analysis; assay type: functional, organism-based
Escherichia coli [20] = test: Antimicrobial activity against rifampicin-resistant Escherichia coli ATCC 25922; assay type: functional
Pseudomonas aeruginosa = test: Antimicrobial activity against Pseudomonas aeruginosa ATCC 27853 assessed as reduction of bacterial growth incubated for 18 hrs by CLSI protocol based broth microdilution method; assay type: functional
Staphylococcus aureus [21] = test: Antibacterial activity against Staphylococcus aureus ATCC 25923 infected BALB/c mouse assessed as reduction in alveolar constriction at 5 to 10 mg/kg, ip measured after 24 hrs by hematoxylin and eosin staining based assay; assay type: functional, organism-based; conditions: dose 5-10 mg/kg
Escherichia coli [22] = test: Antimicrobial activity against Escherichia coli ATCC 25922 assessed as morphological changes measured after 4 hrs by SEM analysis; assay type: functional, organism-based
Staphylococcus aureus [23] = test: Antimicrobial activity against Staphylococcus aureus ATCC 25923 assessed as breakage of cell membrane measured after 2 hrs by SEM analysis; assay type: functional, organism-based
Staphylococcus aureus [24] = test: Antibacterial activity against Staphylococcus aureus ATCC 25923 infected BALB/c mouse assessed as reduction in pulmonary inflammatory cell infiltration at 5 to 10 mg/kg, ip measured after 24 hrs by hematoxylin and eosin staining based assay; assay type: functional, organism-based; conditions: dose 5-10 mg/kg
Staphylococcus aureus [25] = test: Antimicrobial activity against Staphylococcus aureus ATCC 25923 assessed as fold change in MICincubated for 18 hrs in presence of 150 mM NaCl by CLSI protocol based broth microdilution method relative to control; assay type: functional
Lipopolysaccharide (LPS) = test: Binding affinity to LPS (unknown origin) assessed as reduction in bactericidal activity against Escherichia coli ATCC 25922 at 2 times MIC incubated for 2 hrs in presence of 32 ug/ml of LPS by competitive binding assay
[26] = test system: Staphylococcus epidermidis; test: Antimicrobial activity against Staphylococcus epidermidis ATCC 12228 assessed as reduction of bacterial growth incubated for 18 hrs by CLSI protocol based broth microdilution method; assay type: functional
Cell membrane [27] = test: Induction of outer membrane permeabilization in Pseudomonas aeruginosa ATCC 27853 by NPN fluorescent dye based assay; assay type: subcellular; conditions: DDE = dose-dependent effect
Staphylococcus aureus [28] = test: Antimicrobial activity against Staphylococcus aureus ATCC 25923 assessed as disruption of biofilm formation measured after 2 hrs by SEM analysis; assay type: functional, organism-based
Escherichia coli [29] = test: Synergistic antibacterial activity against meropenem-resistant Escherichia coli ATCC 25922 assessed as fractional inhibitory concentration index incubated for 18 hrs in presence of meropenem by checker board assay; assay type: functional
Cell membrane [30] = test: Induction of cytoplasmic membrane depolarization in Pseudomonas aeruginosa ATCC 27853 assessed as increase in fluorescence intensity at 1 to 4 times MIC measured after 1 min by DiSC3-5 dye based fluorescence method; assay type: subcellular
Staphylococcus aureus [31] = test: Antibacterial activity against Staphylococcus aureus ATCC 25923 infected in BALB/c mouse assessed as reduction in bacterial load in lung at 5 to 10 mg/kg, ip measured after 4 to 12 hrs (reference value: 5.6 x 10^6 CFU/g); assay type: functional; conditions: dose 5-10 mg/kg, time 4-12 hrs
Escherichia coli [32] = test: Antimicrobial activity against Escherichia coli ATCC 25922 assessed as cell membrane breakage measured after 30 mins by SEM analysis; assay type: functional, organism-based

H-KWKWKRRRFKWKWK-NH2
MIC (Bacillus subtilis): 4 µM
fold change (FC) (Staphylococcus aureus [1]): 1
HC10 (Erythrocyte): > 256 µM
fractional inhibitory concentration index (FICI) (Escherichia coli [2]): 0.625
fold change (FC) (Escherichia coli [3]): 1
MIC (Staphylococcus aureus [4]): 8 µM
fold change (FC) (Escherichia coli [5]): 1
fold change (FC) (Escherichia coli [6]): 1
Time (Staphylococcus aureus [7]): 90 min
fold change (FC) (Staphylococcus aureus [8]): 1
MIC (Staphylococcus aureus [9]): 4 µM
MIC (Escherichia coli [10]): 8 µM
Activity (Cell membrane [11]): Dde
MIC (Staphylococcus aureus [12]): 4 µM
CC50 at 1 h [13]: > 128 µM
fold change (FC) (Escherichia coli [14]): 1
Activity (Escherichia coli [15]): Active
Activity (Staphylococcus aureus [16]): Active
fold change (FC) (Staphylococcus aureus [17]): 1
MIC (Klebsiella pneumoniae): 16 µM
MIC (Escherichia coli [18]): 4 µM
Activity (Escherichia coli [19]): Active
MIC (Escherichia coli [20]): 4 µM
MIC (Pseudomonas aeruginosa): 4 µM
Activity (Staphylococcus aureus [21]): Active
Activity (Escherichia coli [22]): Active
Activity (Staphylococcus aureus [23]): Active
Activity (Staphylococcus aureus [24]): Active
fold change (FC) (Staphylococcus aureus [25]): 2
Activity (Lipopolysaccharide (LPS)): Active
MIC [26]: 4 µM
Activity (Cell membrane [27]): Dde
Activity (Staphylococcus aureus [28]): Active
fractional inhibitory concentration index (FICI) (Escherichia coli [29]): 1.25
Activity (Cell membrane [30]): Active
Activity (Staphylococcus aureus [31]): 0 CFU/g
Activity (Escherichia coli [32]): Active

H-RIRIRRRRFRIRIR-NH2
MIC (Bacillus subtilis): 2 µM
fold change (FC) (Staphylococcus aureus [1]): 1
HC10 (Erythrocyte): > 256 µM
fractional inhibitory concentration index (FICI) (Escherichia coli [2]): 1
fold change (FC) (Escherichia coli [3]): 1
MIC (Staphylococcus aureus [4]): 4 µM
fold change (FC) (Escherichia coli [5]): 2
fold change (FC) (Escherichia coli [6]): 1
Time (Staphylococcus aureus [7]): 30 min
fold change (FC) (Staphylococcus aureus [8]): 1
MIC (Staphylococcus aureus [9]): 4 µM
MIC (Escherichia coli [10]): 4 µM
Activity (Cell membrane [11]): Dde
MIC (Staphylococcus aureus [12]): 4 µM
CC50 at 1 h [13]: 65.2 µM
fold change (FC) (Escherichia coli [14]): 2
Activity (Escherichia coli [15]): Active
Activity (Staphylococcus aureus [16]): Active
fold change (FC) (Staphylococcus aureus [17]): 2
MIC (Klebsiella pneumoniae): 8 µM
MIC (Escherichia coli [18]): 4 µM
Activity (Escherichia coli [19]): Active
MIC (Escherichia coli [20]): 4 µM
MIC (Pseudomonas aeruginosa): 4 µM
Activity (Staphylococcus aureus [21]): Active
Activity (Escherichia coli [22]): Active
Activity (Staphylococcus aureus [23]): Active
Activity (Staphylococcus aureus [24]): Active
fold change (FC) (Staphylococcus aureus [25]): 2
Activity (Lipopolysaccharide (LPS)): Active
MIC [26]: 4 µM
Activity (Cell membrane [27]): Dde
Activity (Staphylococcus aureus [28]): Active
fractional inhibitory concentration index (FICI) (Escherichia coli [29]): 0.75
Activity (Cell membrane [30]): Active
Activity (Staphylococcus aureus [31]): 0 CFU/g
Activity (Escherichia coli [32]): Active
